Data set [1] has as its system C. albicans preformed biofilm. In words: Eradication of preformed biofilm (XTT). Type of data set: cell-based. Conditions: peptide 6.25 μM, 24-h old biofilm, 24 h treatment. As for the experimental part:
(§1) C. albicans ATCC 90028, C. auris DSM 21092, C. glabrata DSM 11226, C. tropicalis DSM11951 and C. parapsilosis DSM 4874 grown on YPD Agar (1% w/v yeast extract, 2% w/v peptone, 2% w/v glucose, 1.5% Agar) were cultured in Tryptone soya broth supplemented with 0.1% glucose for 16–18 h at 37 °C, washed twice using sterile phosphate-buffered saline (PBS) and standardized to […] as required for the experiments. RPMI1640 medium (Thermo Fisher Scientific, Waltham, MA, USA) buffered to a pH of 7.0 with 0.165 M MOPS was used for growing the biofilms of all Candida species.
(§2) Biofilm inhibition and eradication assays were performed as previously described in [37]. […] After the incubation period, non-adherent cells were detached by washing each sample three times in sterile PBS. […] The total biomass was quantified by a crystal violet assay for the inhibition. The vital biomass was quantified by XTT for test eradication by using the tetrazolium 2,3-bis (2-methoxy-4-nitro-5 sulfophenyl)-5-[(phenylamine) carbonyl]-2H-hydroxide reduction assay (XTT) (Sigma-Aldrich, St. Luis, MO, USA) according to the manufacturer’s instructions. The absorbance was measured spectrophotometrically at 492 nm. The percentages of inhibition or eradication were calculated as follows: % biofilm reduction = Abs control − Abs sample/Abs control × 100.

Data set [2] concerns C. parapsilosis preformed biofilm. In words: Eradication of preformed biofilm (XTT). The class given is cell-based. Conditions: peptide 6.25 μM, 24-h old biofilm, 24 h treatment. As for the experimental part: as §1, §2
(In general: Formazan colour is commonly taken as a measure of viable cells.)

The nature of data set [3]: Peptide aggregation imaged by AFM on mica. The class given is physicochemical. From the text: XE-100 Atomic Force Microscopy (AFM) (by Park Systems, Suwon, Korea) was used for the imaging of the most promising peptide (3) with and without liposome interaction. Surface imaging was obtained in non-contact mode using SSS-NCHR 10 M (by Park Systems) Si/Al-coated cantilever with a sharp tip (typical tip radius: 2 nm, <5 nm max), a resonance frequency between 200 and 400 kHz and a nominal force constant of 42 N/m. […] The AFM images were processed and analyzed by the home software (XEI by Park Systems). The images were flattened to remove the background slope and adjusted in terms of contrast and brightness. For the sample preparation for AFM, the AFM imaging was performed on a substrate of a Muscovite mica surface (of about 1 cm^2 in area) that owned a root mean square (rms) surface roughness of less than 0.5 nm on a 1000 × 1000 nm^2 area. The 3-µL aliquots of the sample solutions were casted on mica immediately after cleavage with adhesive tape to establish their cleanliness and charge activity. In fact, after the cleavage, the K^+ ions bonding the mica layers were highly mobile, resulting in a positive overcharging of the mica surface, which enabled the deposition of molecules that held a […]. After 2 min, every sample was gently washed with deionized water to remove the sample excesses and then dried at room temperature under a ventilated fume hood.

The nature of data set [4]: Peptide aggregation by Thioflavin T fluorescence in LUVs. The class given is physicochemical. The note with it: LUVs PE/PC/PI/ergosterol 0.1 mM, Tris-HCl/NaCl pH 7.4, 25 °C, titrated 5-50 μM peptide. As for the experimental part: The aggregation in the liposomes mimicking fungal membranes (5:4:1:2, w/w/w/w) was evaluated using Thioflavin T (ThT) as a dye probe. The lipid film was prepared by dissolving lipids in chloroform to have a final lipid concentration of 0.1 mM. Then, the solvent was removed under a nitrogen gas stream, and the film was freeze-dried overnight. Lipid films were hydrated with 100 mM NaCl, 10 mM Tris-HCl and a […] ThT buffer at a pH of 7.4 and then treated as described above to obtain LUVs. The LUVs were titrated with a peptide concentration of 5, 10, 15, 20, 30 and 50 μM, and ThT fluorescence was recorded before and after the addition of the peptide using the Varian Cary Eclipse fluorescence spectrometer at 25 °C. The samples were excited at 450 nm (slit width: 10 nm), and the fluorescence emission was recorded at 482 nm (slit width: 5 nm). Aggregation was quantified according to the equation %A = (Ff − F0)/(Fmax − F0) × 100, where Ff indicates the value of fluorescence after the peptide addition, F0 is the initial fluorescence before the addition of the peptide and Fmax is the fluorescence maximum obtained immediately after the peptide addition.

Where [5] appears, read: absence of liposomes, peptide 50 μM.

Positions of bridges follow the written chain, without caps; N, C: chain ends. Non-standard residues stand in square brackets, D forms with d. Residues, ends and D or L forms follow the SMILES beside them. Triazole bridges read from a SMILES are 1,4-linked. Lys(N3) = [N-]=[N+]=NCCCC[C@H](N)C(=O)O; Pra = C#CC[C@H](N)C(=O)O

As for `CC[C@H](C)[C@H](NC(=O)[C@H](CCCNC(=N)N)NC(=O)[C@@H]1CCC(=O)NCCCC[C@H](NC(=O)[C@H](Cc2ccccc2)NC(=O)[C@H](Cc2c[nH]c3ccccc23)NC(=O)[C@@H]2CCCN2C(=O)[C@@H](NC(=O)[C@@H](N)Cc2ccccc2)C(C)C)C(=O)N[C@@H](CCCCN)C(=O)N[C@@H](Cc2ccccc2)C(=O)N[C@H](CC(C)C)C(=O)N1)C(=O)N[C@@H](CC(C)C)C(N)=O` [compound 3] (H-FVPWFKKF[dL]ERIL-NH2; lactam 6-10; N-terminus assumed), in data set [1], the “eradication of preformed biofilm, C. albicans” value came to 50%. Besides, the “eradication of preformed biofilm, C. parapsilosis” value in data set [2] was 50%. Besides, in data set [3] (setting [5]), the “height of aggregates (clusters) on mica by AFM” value is on record as ≤ 20 nm and the “width of aggregates (clusters) on mica by AFM” value is given as “up to 300 nm”. The “thickness of peptide layer on mica by AFM, presence of liposomes” value in data set [3] (after interaction with liposomes mimicking fungal membranes) amounted to 4 nm.
As for `CC(C)C[C@H](NC(=O)[C@@H]1CCCCn2cc(nn2)C[C@H](NC(=O)[C@H](CCCCN)NC(=O)[C@H](CO)NC(=O)[C@H](Cc2ccccc2)NC(=O)[C@H](Cc2c[nH]c3ccccc23)NC(=O)[C@@H]2CCCN2C(=O)[C@@H](NC(=O)[C@@H](N)Cc2ccccc2)C(C)C)C(=O)N[C@H](CC(C)C)C(=O)NCC(=O)N[C@@H](CCCNC(=N)N)C(=O)N1)C(N)=O` [compound 7] (H-FVPWFSK[Pra][dL]GR[Lys(N3)]L-NH2; triazole 8-12; N-terminus assumed), the “concentration of complete aggregation (ThT fluorescence)” value in data set [4] was determined as 30 µM.

The values above are taken from paper PMC8877061, “Antifungal and Antibiofilm Activity of Cyclic Temporin L Peptide Analogues against Albicans and Non-Albicans Candida Species” (Pharmaceutics, 2022).
